Data reported in patent US20170037028A1 (BAYER PHARMA AKTIENGESELLSCHAFT, priority 2013, published 2017).
Read-outs that look alike come from different tables or passages of the source.

Molecular target: T1, GLUT1 (Homo sapiens, UniProt P11166)
T1 sequence (P11166 1-492): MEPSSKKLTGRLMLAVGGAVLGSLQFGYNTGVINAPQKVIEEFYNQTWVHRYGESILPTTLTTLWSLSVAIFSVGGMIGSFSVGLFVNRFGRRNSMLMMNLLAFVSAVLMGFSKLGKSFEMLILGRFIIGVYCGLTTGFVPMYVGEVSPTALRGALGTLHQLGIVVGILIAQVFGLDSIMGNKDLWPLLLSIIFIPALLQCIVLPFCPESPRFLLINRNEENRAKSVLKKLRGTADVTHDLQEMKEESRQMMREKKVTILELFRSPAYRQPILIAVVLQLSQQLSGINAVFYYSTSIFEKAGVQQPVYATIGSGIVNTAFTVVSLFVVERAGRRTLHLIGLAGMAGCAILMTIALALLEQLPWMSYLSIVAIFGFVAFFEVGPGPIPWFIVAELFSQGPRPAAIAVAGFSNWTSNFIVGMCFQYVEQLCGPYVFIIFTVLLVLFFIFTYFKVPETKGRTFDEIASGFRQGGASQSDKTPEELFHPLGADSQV
Experiment: Indirect measurement of GLUT1 activity by quantification of intracellular ATP levels (glucose induced ATP increase)
Format: cell-based
Parameters: endogenous in cells; host or cells: DLD1 or CHO-K1
Conditions: read-out: IC50 regarding glucose induced ATP increase (GLUT1 inhibition)
Summary of the method: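 Intracellular ATP was measured by CellTiter-Glo luminescence as an indirect readout of transport: glucose-driven for GLUT1, fructose-driven for GLUT2. DLD1 or CHO-K1 cells were used alongside an oxidative phosphorylation inhibitor. Beforehand, cells were held overnight in glucose-free 1% FCS medium to deplete ATP.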

[1] = DLD1 cells, 0.1 mM glucose, 1 μM Rotenone, 15 min, CellTiter-Glo ATP readout, IC50 values standardized to cytochalasin B IC50 values

## Cc1nn(Cc2ccc(C(=O)N3CCC(CO)CC3)cc2)c(C)c1NC(=O)c1cc(C(F)(F)F)nc2ccc(Br)cc12 [Example 1099]
  IC50: 0.0419 µM

## Cc1nn(CCc2ccc(F)cc2)c(C)c1NC(=O)c1cc(C(N)=O)nc2ccccc12 [Example 1100]
  IC50: 0.0421 µM

## Cc1nn(Cc2ccc(C(=O)N[C@@H](C)CO)cc2)c(C)c1NC(=O)c1cc(C(F)(F)F)nc2ccc(Br)cc12 [Example 1101]
  IC50: 0.0428 µM

## COc1cc(C(=O)Nc2c(C)nn(Cc3ncccc3C#N)c2C)c2ccccc2n1 [Example 1102]
  IC50: 0.0435 µM

## Cc1nn(CC2COc3ccccc3O2)c(C)c1NC(=O)c1cc(C(N)=O)nc2ccccc12 (stereo not drawn) [Example 1103]
  IC50: 0.0447 µM

## COC(=O)[C@@H](NC(=O)c1ccc(Cn2nc(C)c(NC(=O)c3cc(C(F)(F)F)nc4ccc(Br)cc34)c2C)cc1)[C@@H](C)O [Example 1104]
  IC50: 0.0478 µM

## Cc1c(NC(=O)c2cc(C(F)(F)F)nc3ccc(Br)cc23)c(C(F)(F)F)nn1Cc1ccncc1C#N [Example 1105]
  IC50: 0.0482 µM

## Cc1nn(Cc2ccc(C(=O)NCCn3cccn3)cc2)c(C)c1NC(=O)c1cc(C(F)(F)F)nc2ccc(Br)cc12 [Example 1106]
  IC50: 0.0496 µM

## Cc1nn(Cc2ccc(C(=O)NCCCC(C)(C)CO)cc2)c(C)c1NC(=O)c1cc(C(F)(F)F)nc2ccc(Br)cc12 [Example 1107]
  IC50: 0.0522 µM

## Cc1ccc(CNC(=O)c2ccc(Cn3nc(C)c(NC(=O)c4cc(C(F)(F)F)nc5ccc(Br)cc45)c3C)cc2)cc1 [Example 1108]
  IC50: 0.0525 µM

## COc1ccc(CCCn2nc(C)c(NC(=O)c3cc(OC)nc4ccccc34)c2C)cc1 [Example 1109]
  IC50: 0.0542 µM

## Cc1nn(Cc2ccc(C(=O)NCc3cccs3)cc2)c(C)c1NC(=O)c1cc(C(F)(F)F)nc2ccc(Br)cc12 [Example 1110]
  IC50: 0.0554 µM

## CNC(=O)N1CCC(Cn2nc(C)c(NC(=O)c3cc(C(F)(F)F)nc4ccc(Br)cc34)c2C)CC1 [Example 1111]
  IC50: 0.0568 µM

## Cc1nn(Cc2ccc(C(=O)NC[C@H](O)CO)cc2)c(C)c1NC(=O)c1cc(C(F)(F)F)nc2ccc(Br)cc12 [Example 1112]
  IC50: 0.057 µM

## Cc1ccc2nc(C)cc(C(=O)Nc3c(C)nn(Cc4ccc(Br)cc4)c3C)c2c1 [Example 1113]
  IC50: 0.0585 µM

## Cc1nn(CC2CCOCC2)c(C)c1NC(=O)c1cc(C(F)(F)F)nc2ccc(Br)cc12 [Example 1114]
[1]
  IC50: 0.0592 µM

## COCCNC(=O)c1ccc(Cn2nc(C(F)(F)F)c(NC(=O)c3cc(C(F)(F)F)nc4ccc(Br)cc34)c2C)nc1 [Example 1115]
  IC50: 0.0594 µM

## Cc1nn(Cc2ccc(C(=O)NCCn3ccnc3)cc2)c(C)c1NC(=O)c1cc(C(F)(F)F)nc2ccc(Br)cc12 [Example 1116]
  IC50: 0.0595 µM

## Cc1nn(Cc2ccc(F)cc2)c(C)c1NC(=O)c1cc(C(F)(F)F)nc2ccc(N)cc12 [Example 1117]
  IC50: 0.0597 µM

## Cc1nn(Cc2cccnc2C#N)c(C)c1NC(=O)c1cc(C(F)(F)F)nc2ccc(Br)cc12 [Example 1118]
  IC50: 0.0635 µM

## Cc1nn(Cc2ccc(C(=O)NCc3ccc(F)cc3)cc2)c(C)c1NC(=O)c1cc(C(F)(F)F)nc2ccc(Br)cc12 [Example 1119]
  IC50: 0.0651 µM

## COCCCNC(=O)c1ccc(Cn2nc(C)c(NC(=O)c3cc(C(F)(F)F)nc4ccc(Br)cc34)c2C)cc1 [Example 1120]
  IC50: 0.0655 µM

## Cc1nn(Cc2ccc(C(=O)NCCN(CCO)CCO)cc2)c(C)c1NC(=O)c1cc(C(F)(F)F)nc2ccc(Br)cc12 [Example 1121]
  IC50: 0.0655 µM

## Cc1nn(Cc2ccc(C(=O)NC(CO)CO)cc2)c(C)c1NC(=O)c1cc(C(F)(F)F)nc2ccc(Br)cc12 [Example 1122]
  IC50: 0.0673 µM

## Cc1nn(Cc2ccc(C(=O)NCC3CC3(F)F)cc2)c(C)c1NC(=O)c1cc(C(F)(F)F)nc2ccc(Br)cc12 (stereo not drawn) [Example 1123]
  IC50: 0.0711 µM

## Cc1nn(Cc2ccc(C(=O)NCc3cn(C)cn3)cc2)c(C)c1NC(=O)c1cc(C(F)(F)F)nc2ccc(Br)cc12 [Example 1125]
  IC50: 0.0785 µM

## CNC(=O)c1nn(Cc2ccc(F)cc2)c(C)c1NC(=O)c1cc(C(F)(F)F)nc2ccc(Br)cc12 [Example 1126]
  IC50: 0.08 µM

## Cc1ccc2nc(C)cc(C(=O)Nc3c(C)nn(Cc4ccc(C#N)c(F)c4)c3C)c2c1 [Example 1127]
  IC50: 0.0833 µM

## COc1cc(C(=O)Nc2c(C(F)(F)F)nn(Cc3ccc(C#N)nc3)c2C)c2ccccc2n1 [Example 1128]
  IC50: 0.0865 µM

## Cc1nn(CCc2ccc(F)cc2)c(C)c1NC(=O)c1cc(C(F)(F)F)nc2ccc(Br)cc12 [Example 1129]
[1]
  IC50: 0.0866 µM

## Cc1nn(Cc2ccc(C(=O)NCc3nccs3)cc2)c(C)c1NC(=O)c1cc(C(F)(F)F)nc2ccc(Br)cc12 [Example 1130]
  IC50: 0.0866 µM

## Cc1nn(Cc2ccc(C(=O)NCCCO)cn2)c(C)c1NC(=O)c1cc(C(F)(F)F)nc2ccc(Br)cc12 [Example 1131]
  IC50: 0.0867 µM

## COc1cccc(CNC(=O)c2ccc(Cn3nc(C)c(NC(=O)c4cc(C(F)(F)F)nc5ccc(Br)cc45)c3C)cc2)c1 [Example 1132]
  IC50: 0.0882 µM

## Cc1nn(Cc2ccc(C(=O)NCCCN3CCOCC3)cc2)c(C)c1NC(=O)c1cc(C(F)(F)F)nc2ccc(Br)cc12 [Example 1133]
  IC50: 0.0901 µM

## Cc1nn(Cc2ccc(C(=O)NCC(C)(C)CO)cc2)c(C)c1NC(=O)c1cc(C(F)(F)F)nc2ccc(Br)cc12 [Example 1134]
  IC50: 0.0973 µM

## Cc1c(NC(=O)c2cc(C(F)(F)F)nc3ccc(Br)cc23)c(C(N)=O)nn1Cc1ccc(F)cc1 [Example 1135]
  IC50: 0.0981 µM

## Cc1nn(Cc2ccc(C(=O)NC(CO)(CO)CO)cc2)c(C)c1NC(=O)c1cc(C(F)(F)F)nc2ccc(Br)cc12 [Example 1136]
  IC50: 0.0982 µM

## Cc1nn(Cc2ccc(C(=O)NCCOc3ccccc3)cc2)c(C)c1NC(=O)c1cc(C(F)(F)F)nc2ccc(Br)cc12 [Example 1137]
  IC50: 0.1 µM

## Cc1nn(Cc2ccc(C(N)=O)cn2)c(C)c1NC(=O)c1cc(C(F)(F)F)nc2ccc(Br)cc12 [Example 1138]
  IC50: 0.102 µM

## Cc1nn(Cc2ccc(C(=O)NCCc3ccccn3)cc2)c(C)c1NC(=O)c1cc(C(F)(F)F)nc2ccc(Br)cc12 [Example 1139]
  IC50: 0.105 µM

## C#CCNC(=O)c1ccc(Cn2nc(C)c(NC(=O)c3cc(C(F)(F)F)nc4ccc(Br)cc34)c2C)cc1 [Example 1141]
  IC50: 0.108 µM

## Cc1nn(Cc2ccc(C(=O)NCc3cncn3C)cc2)c(C)c1NC(=O)c1cc(C(F)(F)F)nc2ccc(Br)cc12 [Example 1142]
  IC50: 0.112 µM

## Cc1nn(CC2CCOCC2)c(C)c1NC(=O)c1cc(C(F)(F)F)nc2c(Cl)cc(Cl)cc12 [Example 1143]
  IC50: 0.114 µM

## Cc1nn(Cc2ccc(C(=O)NCCOCCO)cc2)c(C)c1NC(=O)c1cc(C(F)(F)F)nc2ccc(Br)cc12 [Example 1144]
  IC50: 0.114 µM

## Cc1nn(Cc2ccc(C(=O)N(CCO)CCO)cc2)c(C)c1NC(=O)c1cc(C(F)(F)F)nc2ccc(Br)cc12 [Example 1145]
  IC50: 0.116 µM

## Cc1nn(Cc2ccc(C(=O)N(C)CCC3(O)CCCC3)cc2)c(C)c1NC(=O)c1cc(C(F)(F)F)nc2ccc(Br)cc12 [Example 1146]
  IC50: 0.117 µM

## Cc1nn(Cc2ccc(C(=O)N3CC(C#N)C3)cc2)c(C)c1NC(=O)c1cc(C(F)(F)F)nc2ccc(Br)cc12 [Example 1147]
  IC50: 0.117 µM

## Cc1nn(CCc2cccc(F)c2)c(C)c1NC(=O)c1cc(C(N)=O)nc2ccccc12 [Example 1148]
  IC50: 0.122 µM

## Cc1nn(Cc2ccc(C(=O)NCc3ccccc3F)cc2)c(C)c1NC(=O)c1cc(C(F)(F)F)nc2ccc(Br)cc12 [Example 1149]
  IC50: 0.127 µM

## Cc1nn(Cc2ccc(C(=O)NCCN3CCCCC3)cc2)c(C)c1NC(=O)c1cc(C(F)(F)F)nc2ccc(Br)cc12 [Example 1150]
  IC50: 0.128 µM

## Cc1nn(Cc2ccc(C(=O)NCc3ccccc3)cn2)c(C)c1NC(=O)c1cc(C(F)(F)F)nc2ccc(Br)cc12 [Example 1151]
  IC50: 0.128 µM

## Cc1nn(Cc2ccc(C(=O)NC[C@@H](O)CO)cc2)c(C)c1NC(=O)c1cc(C(F)(F)F)nc2ccc(Br)cc12 [Example 1152]
  IC50: 0.132 µM

## COc1cc(C(=O)Nc2c(C)nn(Cc3cccnc3C#N)c2C)c2ccccc2n1 [Example 1153]
  IC50: 0.136 µM

## Cc1nn(Cc2ccc(C(=O)NCc3cnn(C)c3)cc2)c(C)c1NC(=O)c1cc(C(F)(F)F)nc2ccc(Br)cc12 [Example 1154]
  IC50: 0.139 µM

## COC(=O)N1CCC(Cn2nc(C)c(NC(=O)c3cc(C(N)=O)nc4ccccc34)c2C)CC1 [Example 1155]
  IC50: 0.14 µM

## CC(=O)N1CCC(Cn2nc(C)c(NC(=O)c3cc(C(F)(F)F)nc4ccc(Br)cc34)c2C)CC1 [Example 1156]
  IC50: 0.149 µM

## CNC(=O)CCNC(=O)c1ccc(Cn2nc(C)c(NC(=O)c3cc(C(F)(F)F)nc4ccc(Br)cc34)c2C)cc1 [Example 1157]
  IC50: 0.15 µM

## Cc1nn(Cc2ccc(C(=O)Nc3ccncn3)cc2)c(C)c1NC(=O)c1cc(C(F)(F)F)nc2ccc(Br)cc12 [Example 1158]
  IC50: 0.155 µM

## Cc1nn(Cc2ccc(C(=O)NCC3(C)COC3)cn2)c(C)c1NC(=O)c1cc(C(F)(F)F)nc2ccc(Br)cc12 [Example 1159]
  IC50: 0.16 µM

## Cc1nn(Cc2ccc(C(=O)N(C)CCC#N)cc2)c(C)c1NC(=O)c1cc(C(F)(F)F)nc2ccc(Br)cc12 [Example 1160]
  IC50: 0.161 µM
